In ChEMBL document CHEMBL5608163, “Structure modification of anoplin for fighting resistant bacteria” (Eur J Med Chem, 2024):
≈ marks a conversion by molar mass, not a printed value. Square brackets hold non-standard residues; d marks the D form. Peptide text beside a SMILES is read from it. * marks the point of attachment. Pentadecanoyl = CCCCCCCCCCCCCCC(=O)*; NMeR = CN[C@@H](CCCNC(=N)N)C(=O)O; Tridecanoyl = CCCCCCCCCCCCC(=O)*; Undecanoyl = CCCCCCCCCCC(=O)*; NMeK = CN[C@@H](CCCCN)C(=O)O; Nonanoyl = CCCCCCCCC(=O)*

Experiments:
Staphylococcus aureus [1] = assay: Antibacterial activity against Staphylococcus aureus ATCC 25923 assessed as reduction in bacterial growth incubated for 24 hrs by serial dilution method; assay type: functional
Escherichia coli [2] = assay: Antibacterial activity against Escherichia coli ATCC 25922 assessed as bacterial growth inhibition measured after 48 hrs by resazurin assay; assay type: functional
[3] = Hemolytic activity in human RBC assessed as hemolysis; assay type: toxicity, cell-based, Erythrocyte; conditions: red blood cells
Escherichia coli [4] = assay: Antibacterial activity against Escherichia coli; assay type: functional
Staphylococcus aureus [5] = assay: Antibacterial activity against Staphylococcus aureus; assay type: functional
Escherichia coli [6] = assay: Antibacterial activity against Escherichia coli ATCC 25922 assessed as reduction in bacterial cell growth measured for 18 hrs by Mueller-Hinton broth based two-fold serial dilution method; assay type: functional
Staphylococcus aureus [7] = assay: Antibacterial activity against Staphylococcus aureus ATCC 25923 assessed as reduction in bacterial cell growth measured for 18 hrs by Mueller-Hinton broth based two-fold serial dilution method; assay type: functional
Bacillus subtilis = assay: Antibacterial activity against Bacillus subtilis ATCC 23857 assessed as reduction in bacterial cell growth measured for 18 hrs by Mueller-Hinton broth based two-fold serial dilution method; assay type: functional
Pseudomonas aeruginosa = assay: Antibacterial activity against Pseudomonas aeruginosa ATCC 27853 assessed as reduction in bacterial cell growth measured for 18 hrs by Mueller-Hinton broth based two-fold serial dilution method; assay type: functional
[8] = Hemolytic activity in mouse erythrocyte incubated for 1 hr by microplate reader analysis; assay type: toxicity, cell-based; conditions: erythrocytes
Klebsiella pneumoniae = assay: Antibacterial activity against Klebsiella pneumoniae ATCC 700603 assessed as reduction in bacterial cell growth measured for 18 hrs by Mueller-Hinton broth based two-fold serial dilution method; assay type: functional
[9] = Hemolytic activity in mouse Red blood cells incubated for 1 hr by microplate reader assay; assay type: toxicity, cell-based, Erythrocyte; conditions: red blood cells

SMILES	MIC (Staphylococcus aureus [1]) [µM]	MIC (Escherichia coli [2]) [µM]	HC50 [3] [µM]	MIC (Escherichia coli [4]) [µM]	MIC (Staphylococcus aureus [5]) [µM]	MIC (Escherichia coli [6]) [µM]	MIC (Staphylococcus aureus [7]) [µM]	MIC (Bacillus subtilis) [µM]	MIC (Pseudomonas aeruginosa) [µM]	HC50 at 1 h [8] [µM]	MIC (Klebsiella pneumoniae) [µM]	HC50 at 1 h [9] [µM]
CC[C@H](C)[C@H](NC(=O)[C@H](CCCNC(=N)N)NC(=O)[C@H](CCCCN)NC(=O)[C@H](CC(C)C)NC(=O)[C@H](CC(C)C)NC(=O)CN)C(=O)N[C@@H](CCCCN)C(=O)N[C@@H](Cc1ccccc1)C(=O)N[C@@H](CC(C)C)C(=O)N[C@@H](CC(C)C)C(N)=O (H-GLLKRIKFLL-NH2)	6.7 (≈ 8.04 µg/mL)	6.7 (≈ 8.04 µg/mL)	326									
CC[C@H](C)[C@H](NC(=O)[C@H](CCCCN)NC(=O)[C@@H](NC(=O)[C@H](CCCNC(=N)N)NC(=O)[C@H](CCCCN)NC(=O)[C@H](CC(C)C)NC(=O)[C@H](CC(C)C)NC(=O)CN)[C@@H](C)CC)C(=O)N[C@@H](CC(C)C)C(=O)N[C@@H](CC(C)C)C(N)=O (H-GLLKRIKILL-NH2)	12 (≈ 14 µg/mL)	7.7 (≈ 8.97 µg/mL)	81.8									
CC[C@H](C)[C@H](NC(=O)[C@H](CCCNC(=N)N)NC(=O)[C@H](CCCCN)NC(=O)[C@H](CC(C)C)NC(=O)[C@H](CC(C)C)NC(=O)CN)C(=O)N[C@@H](CCCCN)C(=O)N[C@@H](CC(C)C)C(=O)N[C@@H](CC(C)C)C(=O)N[C@@H](CC(C)C)C(N)=O (H-GLLKRIKLLL-NH2)	6 (≈ 6.99 µg/mL)	11.2 (≈ 13.1 µg/mL)	102									
CC[C@H](C)[C@H](NC(=O)[C@H](CCCNC(=N)N)NC(=O)[C@H](CCCCN)NC(=O)[C@H](CC(C)C)NC(=O)[C@H](CC(C)C)NC(=O)CN)C(=O)N[C@@H](CCCCN)C(=O)N[C@@H](CC(N)=O)C(=O)N[C@@H](CC(C)C)C(=O)N[C@@H](CC(C)C)C(N)=O (H-GLLKRIKNLL-NH2)	10.3 (≈ 12 µg/mL)	18.9 (≈ 22 µg/mL)	79.2									
CC[C@H](C)[C@H](NC(=O)[C@@H](NC(=O)[C@H](CCCCN)NC(=O)[C@H](CC(C)C)NC(=O)[C@H](CC(C)C)NC(=O)CN)C(C)C)C(=O)N[C@@H](CCCCN)C(=O)N[C@H](C(=O)N[C@@H](CC(C)C)C(=O)N[C@@H](CC(C)C)C(N)=O)C(C)C (H-GLLKVIKVLL-NH2)			190	25.6 (≈ 28 µg/mL)	12.8 (≈ 14 µg/mL)							
CC[C@H](C)[C@H](NC(=O)[C@H](Cc1ccccc1)NC(=O)[C@H](CCCCN)NC(=O)[C@H](CC(C)C)NC(=O)[C@H](CC(C)C)NC(=O)[C@@H](N)CCCCN)C(=O)N[C@@H](CCCCN)C(=O)N[C@H](C(=O)N[C@@H](CC(C)C)C(=O)N[C@@H](CC(C)C)C(N)=O)[C@@H](C)O (H-KLLKFIKTLL-NH2)			295	2.5 (≈ 3.04 µg/mL)	5.8 (≈ 7.05 µg/mL)							
CC[C@H](C)[C@H](NC(=O)[C@H](CCCNC(=N)N)NC(=O)[C@H](CCCCN)NC(=O)[C@H](CC(C)C)NC(=O)[C@H](CC(C)C)NC(=O)[C@@H](N)CCCCN)C(=O)N[C@@H](CCCCN)C(=O)N[C@@H](CCCCN)C(=O)N[C@@H](CC(C)C)C(=O)N[C@@H](CC(C)C)C(N)=O (H-KLLKRIKKLL-NH2)			193	29.6 (≈ 37.1 µg/mL)	22.4 (≈ 28 µg/mL)							
CC[C@H](C)[C@H](NC(=O)[C@H](CCCNC(=N)N)NC(=O)[C@H](CCCCN)NC(=O)[C@H](CC(C)C)NC(=O)[C@H](CC(C)C)NC(=O)[C@@H](N)CCCCN)C(=O)N[C@@H](CCCCN)C(=O)N[C@H](C(=O)N[C@@H](CC(C)C)C(=O)N[C@@H](CC(C)C)C(N)=O)[C@@H](C)O (H-KLLKRIKTLL-NH2)			29.3	19.6 (≈ 24 µg/mL)	> 19.6							
CC[C@H](C)[C@H](NC(=O)[C@@H](NC(=O)[C@H](CCCCN)NC(=O)[C@H](CC(C)C)NC(=O)[C@H](CC(C)C)NC(=O)[C@@H](N)CCCCN)C(C)C)C(=O)N[C@@H](CCCCN)C(=O)N[C@@H](CCCCN)C(=O)N[C@@H](CC(C)C)C(=O)N[C@@H](CC(C)C)C(N)=O (H-KLLKVIKKLL-NH2)				5 (≈ 5.97 µg/mL)	7.5 (≈ 8.96 µg/mL)							
CCCCCCCCC(=O)NCC(=O)N[C@@H](CC(C)C)C(=O)N[C@@H](CC(C)C)C(=O)N[C@@H](CCCCN)C(=O)N(C)[C@@H](CCCNC(=N)N)C(=O)N[C@H](C(=O)N(C)[C@@H](CCCCN)C(=O)N[C@H](C(=O)N[C@@H](CC(C)C)C(=O)N[C@@H](CC(C)C)C(N)=O)[C@@H](C)O)[C@@H](C)CC (Nonanoyl-GLLK[NMeR]I[NMeK]TLL-NH2)						128 (≈ 169 µg/mL)	128 (≈ 169 µg/mL)	8 (≈ 10.6 µg/mL)	32 (≈ 42.3 µg/mL)	> 256	> 128	> 256
CCCCCCCCC(=O)NCC(=O)N[C@@H](CC(C)C)C(=O)N[C@@H](CC(C)C)C(=O)N(C)[C@@H](CCCCN)C(=O)N[C@@H](CCCNC(=N)N)C(=O)N[C@H](C(=O)N(C)[C@@H](CCCCN)C(=O)N[C@H](C(=O)N[C@@H](CC(C)C)C(=O)N[C@@H](CC(C)C)C(N)=O)[C@@H](C)O)[C@@H](C)CC (Nonanoyl-GLL[NMeK]RI[NMeK]TLL-NH2)						128 (≈ 169 µg/mL)	128 (≈ 169 µg/mL)	16 (≈ 21.1 µg/mL)	32 (≈ 42.3 µg/mL)	> 256	> 128	> 256
CCCCCCCCCCCCCCC(=O)NCC(=O)N[C@@H](CC(C)C)C(=O)N[C@@H](CC(C)C)C(=O)N[C@@H](CCCCN)C(=O)N(C)[C@@H](CCCNC(=N)N)C(=O)N[C@H](C(=O)N(C)[C@@H](CCCCN)C(=O)N[C@H](C(=O)N[C@@H](CC(C)C)C(=O)N[C@@H](CC(C)C)C(N)=O)[C@@H](C)O)[C@@H](C)CC (Pentadecanoyl-GLLK[NMeR]I[NMeK]TLL-NH2)						16 (≈ 22.5 µg/mL)	16 (≈ 22.5 µg/mL)	8 (≈ 11.2 µg/mL)	16 (≈ 22.5 µg/mL)	64	32 (≈ 45 µg/mL)	64
CCCCCCCCCCCCCCC(=O)NCC(=O)N[C@@H](CC(C)C)C(=O)N[C@@H](CC(C)C)C(=O)N(C)[C@@H](CCCCN)C(=O)N[C@@H](CCCNC(=N)N)C(=O)N[C@H](C(=O)N(C)[C@@H](CCCCN)C(=O)N[C@H](C(=O)N[C@@H](CC(C)C)C(=O)N[C@@H](CC(C)C)C(N)=O)[C@@H](C)O)[C@@H](C)CC (Pentadecanoyl-GLL[NMeK]RI[NMeK]TLL-NH2)						16 (≈ 22.5 µg/mL)	8 (≈ 11.2 µg/mL)	8 (≈ 11.2 µg/mL)	16 (≈ 22.5 µg/mL)	64	32 (≈ 45 µg/mL)	64
CCCCCCCCCCCCC(=O)NCC(=O)N[C@@H](CC(C)C)C(=O)N[C@@H](CC(C)C)C(=O)N[C@@H](CCCCN)C(=O)N(C)[C@@H](CCCNC(=N)N)C(=O)N[C@H](C(=O)N(C)[C@@H](CCCCN)C(=O)N[C@H](C(=O)N[C@@H](CC(C)C)C(=O)N[C@@H](CC(C)C)C(N)=O)[C@@H](C)O)[C@@H](C)CC (Tridecanoyl-GLLK[NMeR]I[NMeK]TLL-NH2)						8 (≈ 11 µg/mL)	8 (≈ 11 µg/mL)	4 (≈ 5.51 µg/mL)	8 (≈ 11 µg/mL)	64	32 (≈ 44.1 µg/mL)	64
CCCCCCCCCCCCC(=O)NCC(=O)N[C@@H](CC(C)C)C(=O)N[C@@H](CC(C)C)C(=O)N(C)[C@@H](CCCCN)C(=O)N[C@@H](CCCNC(=N)N)C(=O)N[C@H](C(=O)N(C)[C@@H](CCCCN)C(=O)N[C@H](C(=O)N[C@@H](CC(C)C)C(=O)N[C@@H](CC(C)C)C(N)=O)[C@@H](C)O)[C@@H](C)CC (Tridecanoyl-GLL[NMeK]RI[NMeK]TLL-NH2)						16 (≈ 22 µg/mL)	8 (≈ 11 µg/mL)	4 (≈ 5.51 µg/mL)	8 (≈ 11 µg/mL)	64	64 (≈ 88.2 µg/mL)	64
CCCCCCCCCCC(=O)NCC(=O)N[C@@H](CC(C)C)C(=O)N[C@@H](CC(C)C)C(=O)N[C@@H](CCCCN)C(=O)N(C)[C@@H](CCCNC(=N)N)C(=O)N[C@H](C(=O)N(C)[C@@H](CCCCN)C(=O)N[C@H](C(=O)N[C@@H](CC(C)C)C(=O)N[C@@H](CC(C)C)C(N)=O)[C@@H](C)O)[C@@H](C)CC (Undecanoyl-GLLK[NMeR]I[NMeK]TLL-NH2)						16 (≈ 21.6 µg/mL)	32 (≈ 43.2 µg/mL)	8 (≈ 10.8 µg/mL)	8 (≈ 10.8 µg/mL)	> 256	128 (≈ 173 µg/mL)	> 256
CCCCCCCCCCC(=O)NCC(=O)N[C@@H](CC(C)C)C(=O)N[C@@H](CC(C)C)C(=O)N(C)[C@@H](CCCCN)C(=O)N[C@@H](CCCNC(=N)N)C(=O)N[C@H](C(=O)N(C)[C@@H](CCCCN)C(=O)N[C@H](C(=O)N[C@@H](CC(C)C)C(=O)N[C@@H](CC(C)C)C(N)=O)[C@@H](C)O)[C@@H](C)CC (Undecanoyl-GLL[NMeK]RI[NMeK]TLL-NH2)						32 (≈ 43.2 µg/mL)	32 (≈ 43.2 µg/mL)	4 (≈ 5.4 µg/mL)	8 (≈ 10.8 µg/mL)	> 256	> 128	> 256
